Measured values published in paper PMC4467398, “Preclinical antitumor activity of ST7612AA1: a new oral thiol-based histone deacetylase (HDAC) inhibitor” (Oncotarget, 2014).

Tested on: DOHH2 and TMD8 DLBCL cells
Experiment: Gene expression profiling (HumanHT-12 v4 BeadChip, limma), ST7612AA1 300 nM 8 hrs vs DMSO
Assay type: cell-based, human
Conditions: 300 nM 8 hrs vs DMSO

CC(=O)SCCCCC[C@H](NC(=O)[C@H]1CCC(=O)N1)C(=O)Nc1ccccc1 [ST7612AA1]
log ratio TCEA2 (probe ILMN_1665526): 8.50E-01 | log ratio TCEAL3 (probe ILMN_1734190): 7.88E-01 | log ratio TCERG1 (ILMN_1706839): -8.49E-01 | log ratio TCFL5 (ILMN_1814247): 6.07E-01 | log ratio TCTN1 (probe ILMN_1685124): 7.81E-01 | log ratio TESK2 (probe ILMN_1654370): 8.37E-01 | log ratio TFB2M (ILMN_2067709): -7.83E-01 | log ratio THOC6 (ILMN_1679880): -5.93E-01 | log ratio THUMPD2 (ILMN_1787511): -6.05E-01 | log ratio TIMM10 (ILMN_1765332): -1.04E+00 | log ratio TLK1 (ILMN_1811029): -9.26E-01 | log ratio TMBIM4 (ILMN_1664750): -9.76E-01 | log ratio TMED1 (ILMN_1693045): -9.13E-01 | log ratio TMEM14A (probe ILMN_1785191): 7.29E-01 | log ratio TMEM49 (probe ILMN_1692754): 8.49E-01 | log ratio TMEM154 (probe ILMN_2088124): 6.89E-01 | log ratio TMEM179B (ILMN_3241979): 5.96E-01 | log ratio TMEM184B (ILMN_1747460): 6.31E-01 | log ratio TMEM199 (ILMN_1748481): -6.12E-01 | log ratio TMOD2 (probe ILMN_3250273): 7.57E-01 | log ratio TMPO (ILMN_1768816): -8.22E-01 | log ratio TNFRSF17 (ILMN_1768016): -1.76E+00 | log ratio TOB1 (ILMN_1672004): 6.63E-01 | log ratio TPRG1L (probe ILMN_1727479): 7.86E-01 | log ratio TPST1 (probe ILMN_1651950): 7.51E-01 | log ratio TPST2 (probe ILMN_1695432): 7.18E-01 | log ratio TRAFD1 (probe ILMN_1758250): 8.52E-01 | log ratio TRIM4 (ILMN_2323385): 6.43E-01 | log ratio TRIM6 (ILMN_1656910): 5.98E-01 | log ratio TRIM8 (ILMN_1746704): -8.66E-01 | log ratio TRIM21 (ILMN_1678054): -8.09E-01 | log ratio TRIM22 (ILMN_1779252): -8.73E-01 | log ratio TRIP6 (ILMN_1713990): -1.16E+00 | log ratio TRMT1 (ILMN_1812940): -8.45E-01 | log ratio TRMT11 (ILMN_1805481): -8.20E-01 | log ratio TSEN2 (ILMN_1746393): -8.42E-01 | log ratio TSPAN4 (ILMN_2340027): 5.99E-01 | log ratio TTC27 (ILMN_1757730): -1.28E+00 | log ratio TTLL12 (ILMN_1663113): -6.01E-01 | log ratio TUBG2 (ILMN_1701052): 6.65E-01 | log ratio TXNDC14 (ILMN_1799367): -8.38E-01 | log ratio TYMS (ILMN_1806040): -1.10E+00 | log ratio TYSND1 (ILMN_1775677): -1.15E+00 | log ratio TYW3 (ILMN_1726842): -9.88E-01 | log ratio U2AF2 (ILMN_1768930): -1.25E+00 | log ratio UBE2A (probe ILMN_2307455): 7.18E-01 | log ratio UBE2C (ILMN_2265654): -7.99E-01 | log ratio UBE2D4 (ILMN_1707084): -8.99E-01 | log ratio UBE2H (ILMN_1757644): 6.49E-01 | log ratio UBE2J1 (ILMN_1713759): -1.05E+00 | log ratio UBTD1 (probe ILMN_1794914): 8.56E-01 | log ratio UBXN8 (ILMN_1731891): -8.44E-01 | log ratio UCK2 (ILMN_1768662): -9.43E-01 | log ratio UCP2 (probe ILMN_1685625): 7.30E-01 | log ratio UNC45A (ILMN_1726434): 6.72E-01 | log ratio UNC84A (probe ILMN_1772316): 7.21E-01 | log ratio UNG (ILMN_1683120): -1.39E+00 | log ratio UPLP (probe ILMN_3236765): 7.46E-01 | log ratio UPP1 (ILMN_1798256): 6.07E-01 | log ratio URB2 (ILMN_3249406): -5.93E-01 | log ratio USP13 (ILMN_3251526): -5.97E-01 | log ratio VASH2 (probe ILMN_1692698): 7.31E-01 | log ratio VPS8 (probe ILMN_1678268): 7.47E-01 | log ratio VRK2 (ILMN_1750088): -9.87E-01 | log ratio VRK3 (ILMN_1771697): 6.75E-01 | log ratio WARS2 (ILMN_2323979): -5.97E-01 | log ratio WDR12 (ILMN_1770692): -7.92E-01 | log ratio WDR12 (ILMN_2045729): -8.64E-01 | log ratio WDR19 (probe ILMN_1655117): 7.77E-01 | log ratio WIBG (ILMN_1751431): -1.01E+00 | log ratio WIPI2 (ILMN_2321292): 6.22E-01 | log ratio WNK1 (ILMN_1876924): 6.14E-01 | log ratio YARS2 (ILMN_1782635): -8.22E-01 | log ratio YDJC (ILMN_1812580): -8.57E-01 | log ratio YPEL3 (ILMN_1791147): 6.17E-01
